According to patent US12351651B2, “Polypeptide for repairing mucosal damage or skin wound and use thereof” (Sichuan Gooddoctor Panxi Pharmaceutical Co., Ltd., priority 2020, dated 2025):
Values joined by “and” are separate entries in the source; they are usually repeats but may differ in a detail not shown here. Equal entries are not always repeated. Marks after values point to notes of the source that are not given here. No end group written: not given here.

system: ethanol-induced gastric ulcer in mice; test: Ethanol-induced gastric ulcer in mice, administration once a day for 8 days; type: in vivo, C57BL/6 mice; conditions: absolute ethanol, gavage once a day for 8 days, SEQ ID NO: 1 1 mg/kg, teprenone 160 mg/kg, n = 10, x ± s
Experimental: 1. Experimental animal: SPF grade C57BL/6 mice, from Chengdu Yaokang Biotechnology Ltd, animal license number: SCXK (Chuan) 2020-034.
2. Method: After adaptive feeding, the mice were randomly divided into four groups with 10 mice in each group, namely, control group (normal group), model group (modeling with absolute ethanol), positive drug group (teprenone 160 mg/kg) and SEQ ID NO: 1 group (1 mg/kg). After the animals were grouped, the control group and model group were treated with pure water, and the other dosed groups were treated with the corresponding drugs once a day for 8 consecutive days. On the 7th day, after treatment, all the animals were fasted for 24 h with free access to water. […] The stomach was cut open along the greater curvature, the content of the stomach was cleaned off with normal saline, and the ulcer index was calculated after being laid flat. Calculation method for ulcer index: If the length of cord-like injury was greater than 1 mm, the length thereof was measured, with 1 point per millimeter; if the width thereof was greater than 1 mm, the score thereof was doubled according to the number of millimeters of the width; and if the length was less than 1 mm, a score of 0.5 was given, and the scores were added up to obtain the ulcer index of the animal.

| Substance | Ulcer index |
| --- | --- |
| teprenone | 13.42 ± 7.61 |

system: ethanol-induced gastric ulcer model in mice; test: Anti-ulcer activity of single administration in ethanol-induced model in mice; type: in vivo, C57BL/6 mice; conditions: single administration by gavage, 0.2 mg/kg, 1 h before absolute ethanol; relative to compound of SEQ ID NO: 1
Experimental: 1. Experimental animal: SPF grade C57BL/6 mice, from Chengdu Yaokang Shengwu Keji Youxian Gongsi, animal license number: SCXK (Chuan) 2020-034.
After adaptive feeding, all the animals were fasted for 24 h with free access to water after administration one day before the experiment. Before modeling, the experimental mice were randomly divided into groups: blank group (5 mice), model group (10 mice), and treatment groups (10 mice per group). Except for the blank group and the model group, which were given sterile water by gavage, the treatment groups were administered with different test compounds by gavage at a dose of 0.2 mg/kg, respectively. One hour after administration, the mice received 0.9 ml/kg absolute ethanol by oral gavage for modeling. After 1 h, the animals were sacrificed by cervical dislocation, the gastric cardia was ligated, the pylorus was occluded, and the whole stomach was removed. 1 mL of 1% formaldehyde solution was injected into the gastric lumen, the cardia was ligated, and the stomach was taken out and immediately immersed in 1% formaldehyde solution. After 30 min, the stomach tissue was taken out and cut open along the greater curvature. The content of the stomach was rinsed off with normal saline, the injury of gastric mucosa in mice were observed and measured after being laid flat, and the ulcer index and ulcer inhibition rate were calculated.
Calculation method for ulcer index: If the length of cord-like injury was greater than 1 mm, the length thereof was measured, with 1 point per millimeter; if the width thereof was greater than 1 mm, the score thereof was doubled according to the number of millimeters of the width; and if the length was less than 1 mm, a score of 0.5 was given, and the scores were added to obtain the ulcer index of the animal. • Ulcer inhibition rate=(ulcer index of model group-ulcer index of treatment group)/ulcer index of model group*100%; and • Relative ulcer inhibition rate=(ulcer inhibition rate of test compound)/(ulcer inhibition rate of Compound 1).

| Substance | Anti-ulcer activity (mean relative ulcer inhibition rate) |
| --- | --- |
| AEPVPL [SEQ ID NO: 30] | +++ (relative ulcer inhibition rate 0.9-1.20, denoted as “+++”) |
| AEPVPLVKQD [SEQ ID NO: 27] | +++ (relative ulcer inhibition rate 0.9-1.20, denoted as “+++”) |
| Ala-Glu-Pro-Val (AEPV) [SEQ ID NO: 45] | − (relative ulcer inhibition rate <0, denoted as “−”) |
| Ala-Glu-Pro-Val-Pro (AEPVP) [SEQ ID NO: 44] | + (relative ulcer inhibition rate 0.3-0.6, denoted as “+”) |
| EPVPLVKQD [SEQ ID NO: 38] | +++ (relative ulcer inhibition rate 0.9-1.20, denoted as “+++”) |
| Glu-Pro-Val-Pro-Leu (EPVPL) [SEQ ID NO: 31] | +++ (relative ulcer inhibition rate 0.9-1.20, denoted as “+++”) |
| PAADPVPLVKQD [SEQ ID NO: 11] | ++ (relative ulcer inhibition rate 0.6-0.9, denoted as “++”) |
| PAAEGVGLVKQD [SEQ ID NO: 8] | + (relative ulcer inhibition rate 0.3-0.6, denoted as “+”) |
| PAAEPV [SEQ ID NO: 34] | / (0< relative ulcer inhibition rate <0.3, denoted as “/” (very low activity)) |
| PAAEPVPFVKQD [SEQ ID NO: 12] | / (0< relative ulcer inhibition rate <0.3, denoted as “/” (very low activity)) |
| PAAEPVPL [SEQ ID NO: 26] | +++ (relative ulcer inhibition rate 0.9-1.20, denoted as “+++”) |
| PAAEPVPLIKQD [SEQ ID NO: 64] | + (relative ulcer inhibition rate 0.3-0.6, denoted as “+”) |
| PAAEPVPLVK [SEQ ID NO: 3] | +++ (relative ulcer inhibition rate 0.9-1.20, denoted as “+++”) |
| PAAEPVPLVKED [SEQ ID NO: 57] | ++ (relative ulcer inhibition rate 0.6-0.9, denoted as “++”) |
| PAAEPVPLVKND [SEQ ID NO: 58] | / (0< relative ulcer inhibition rate <0.3, denoted as “/” (very low activity)) |
| PAAEPVPLVKQE [SEQ ID NO: 60] | + (relative ulcer inhibition rate 0.3-0.6, denoted as “+”) |
| PAAEPVPLVKQN [SEQ ID NO: 50] | / (0< relative ulcer inhibition rate <0.3, denoted as “/” (very low activity)) |
| PAAQPVPLVKQD [SEQ ID NO: 10] | ++++ (Relative ulcer inhibition rate >1.20, denoted as “++++”) |
| PAAVPVPLVKQD [SEQ ID NO: 67] | + (relative ulcer inhibition rate 0.3-0.6, denoted as “+”) |
| PAGEPVPLVKQD [SEQ ID NO: 48] | ++ (relative ulcer inhibition rate 0.6-0.9, denoted as “++”) |
| PIAEPVPLVKQD [SEQ ID NO: 56] | − (relative ulcer inhibition rate <0, denoted as “−”) |
| PVPLVKQD [SEQ ID NO: 28] | +++ (relative ulcer inhibition rate 0.9-1.20, denoted as “+++”) |
| Pro-Ala-Ala-Glu-Pro (PAAEP) [SEQ ID NO: 35] | + (relative ulcer inhibition rate 0.3-0.6, denoted as “+”) |
| Pro-Val-Pro-Leu (PVPL) [SEQ ID NO: 32] | +++ (relative ulcer inhibition rate 0.9-1.20, denoted as “+++”) |
| Val-Pro-Leu-Val (VPLV) [SEQ ID NO: 73] | ++ (relative ulcer inhibition rate 0.6-0.9, denoted as “++”) |

system: subintestinal vascular branches of zebrafish; test: Repair of simvastatin-induced vascular injury in zebrafish; type: in vivo; conditions: 500 ng/fish intravenous injection, 28° C., 2 days
Source text: Method: The blood vessels of transgenic vascular green fluorescent zebrafish (Fli-1) were labeled by green fluorescent protein, which was clearly visible under a fluorescence microscope (FIG. 9, the dotted frame in FIG. 9 (yellow in the original picture) was the intestinal blood vessel at the analysis site, and the arrow (white in the original picture) pointed to subintestinal vascular branches), and it became a model organism for observing vascular change. Zebrafish Fli-1 was naturally mated in pairs for breeding. Zebrafish Fli-1 was randomly selected and placed in a 6-well plate one day after fertilization, with 30 fish per well (experimental group). The zebrafish in the normal control group were treated with standard dilution water, and each of the other experimental groups was induced with aqueous simvastatin for 3 hours to establish a zebrafish microvascular loss model. After 3 hours, the aqueous solutions in all the groups were replaced with standard dilution water, and simvastatin induction was terminated. […] Ten zebrafish in each group were randomly selected and photographed under the fluorescence microscope. NIS-Elements D 3.20 advanced image processing software was used for analysis and data collection, and the number of subintestinal vascular branches was analyzed.

| Substance | subintestinal microvascular loss caused by simvastatin / number of subintestinal vascular branches |
| --- | --- |
| PAAEPVPL [SEQ ID NO: 26] | significantly reverse |

system: not listed separately; test: Gastric and intestinal stability test of polypeptide samples; type: in vitro ADME; conditions: artificial gastric juice (W), 37° C., 1 hour, HPLC peak area
Experimental: Method: 1 mg of each of the samples to be tested (Compounds 1, 26, 27 and 28 and EGF) were taken and dissolved in 1 ml of water. 100 ul of sample solution was taken, 900 ul of water was added, and they were uniformly mixed, as a control solution. 100 ul of each sample solution was taken, and 900 ul of artificial gastric juice (W), artificial intestinal juice (X), povidone-iodine solution (I), and hydrogen peroxide solution (O) were respectively added. The solution was placed in a constant temperature water bath at 37° C. for 1 hour, and left to stand for cooling and filtering, as a test solution. The peak areas of the sample before and after treatment were respectively detected by high performance liquid chromatography, and the experimental results were compared based on the peak areas of the samples. The original solution without any treatment after being diluted with water was used as a control, and the changes in the peak areas (contents) of test solutions at corresponding positions were compared and counted.

| Substance | W Retained % |
| --- | --- |
| AEPVPLVKQD [SEQ ID NO: 27] | 100% and 97% |
| PAAEPVPL [SEQ ID NO: 26] | 100% |
| PVPLVKQD [SEQ ID NO: 28] | 100% and 96% |

same assay, conditions: artificial intestinal juice (X), 37° C., 1 hour, HPLC peak area

| Substance | X Retained % [%] |
| --- | --- |
| AEPVPLVKQD [SEQ ID NO: 27] | 0 |
| PVPLVKQD [SEQ ID NO: 28] | 0 |

same assay, conditions: hydrogen peroxide solution (O), 37° C., 1 hour, HPLC peak area

| Substance | O Retained % |
| --- | --- |
| AEPVPLVKQD [SEQ ID NO: 27] | 100% and 101% |
| PAAEPVPL [SEQ ID NO: 26] | 100% and 102% |
| PVPLVKQD [SEQ ID NO: 28] | 100% and 99% |

same assay, conditions: povidone-iodine solution (I), 37° C., 1 hour, HPLC peak area

| Substance | I Retained % |
| --- | --- |
| AEPVPLVKQD [SEQ ID NO: 27] | 100% |
| PAAEPVPL [SEQ ID NO: 26] | 100% and 101% |
| PVPLVKQD [SEQ ID NO: 28] | 100% and 99% |

system: aspirin-induced gastric ulcer in rats; test: Aspirin-induced gastric ulcer in rats; type: in vivo, SD rats; conditions: 0.3 mg/kg oral gavage once a day for 8 consecutive days
Experimental: Method: After adaptive feeding, SD rats were divided into three groups (10 rats in each group) by Excel-based complete randomization, namely, a control group, a model group, and a the compound of SEQ ID NO: 1 (0.3 mg/kg) group. After the animals were grouped, they were given corresponding treatments (the control group and the model group were given the same volume of purified water, and the SEQ ID NO: 1 group was given corresponding drug treatment) once a day for 8 consecutive days. On the 7th day after administration, all the animals were fasted for 24 h with free access to water. On the 8th day, except for the control group, the rats in the SEQ ID NO: 1 group and the model group were orally given 250 mg/kg aspirin solution for modeling 30 min after compound administration (or given water). 4 h after modeling, the animals were sacrificed, the cardia was ligated, the pylorus was occluded, and the whole stomach was removed. 8 mL of 1% formaldehyde solution was injected into the gastric lumen, the pylorus was ligated, and the stomach was taken out and immediately immersed in 1% formaldehyde solution for fixation. After 30 min, the stomach was cut open along the greater curvature, the content of the stomach was cleaned off with normal saline, and after the stomach was laid flat, the stomach was observed, and panoramic photos were taken to measure the ulcer area.

| Substance | weight change |
| --- | --- |
| PAAEPVPLVKQD [SEQ ID NO: 1, Pro-Ala-Ala-Glu-Pro-Val-Pro-Leu-Val-Lys-Gln-Asp] | no obvious effects |

same assay, conditions: rats, 0.3 mg/kg gavage once a day for 8 days, aspirin 250 mg/kg

| Substance | Ulcer area |
| --- | --- |
| SEQ ID NO. 1 (PAAEPVPLVKQD) | 20.55 ± 10.45** mm^2 |
